Measured values from patent US20240287054A1, “COMPOUNDS THAT BIND NON-CANONICAL G-QUADRUPLEX STRUCTURES AND METHODS OF MAKING AND USING THE SAME” (The U.S.A., as Represented by the Secretary, Department of …, priority 2021, published 2024).

Experiments:
MYCN G4 DNA = assay: SPR competitive binding assay on MYCN G4; set-up: species or system human
Description: Based on this unexpected observation, and without being bound to a single theory, it currently is believed that the two compounds might bind to MYCN G4 on different sites. To investigate, a competitive assay on SPR was performed by injecting the compounds step-wise in a designated order or injecting a mixture (Brooks et al., Drug Discovery Today 2014, 19:1040-1044; Spurny et al., PNAS 112:E2543-2552). […] Next, TMPyP4, a classical stacking G4-binder (Seenisamy, JACS 2004, 126:8702-8709), was also tested together with MY-1. […] In addition, a CD melting assay was also performed using either MY-1 or a mixture of two hits (1 and MY-1).

MYCN hairpin-G4 DNA = assay: FIA using compound fluorescence (Ex 340/Em 500 nm), titration with unlabeled MYCN G4 DNA; assay type: binding, human; conditions: 100 nM compound titrated with folded unlabeled MYCN G4
Description: In this study, FIA was used for validating the bindings between certain bivalent and MYCN G4 oligos. To measure the binding affinity, a solution of each compound was prepared in triplicate in a 96 well-plate (Costar, black side clear bottom), resulting in a final concentration of 100 nM (5% final DMSO in the working solution). Unlabeled MYCN G4 DNA was folded based on the above-mentioned annealing method, then added into the well plate resulting in different concentrations by a seral dilution. The plate was incubated at room temperature for 30 min, followed by centrifuging at 500 rpm for 2 minutes. The fluorescence intensity was then quantitatively recorded by a Synergy Mx microplate reader (BioTek) at Ex 340 nm/Em 500 nm. The fluorescence intensities were then normalized, and the binding affinity was calculated by fitting the curve using one-site total model in GraphPad Prism 8.3.1 software.

[1] = tested on: MYCNOS001 and MYCNOS002 transcripts; assay: qRT-PCR of MYCNOS transcripts in NBEB cells; assay type: cell-based
Description: To examine the effects of G4-binding compounds on NBEB cells, live-cell imaging was performed using an Incucyte interface (described below). NBEB (5K/well), cells were seeded into 96-well plates in triplicate, treated with compound MY-8 at various concentrations (0-45 μM), and cultured until control wells reached confluence. […] To validate cell viability, a Trypan Blue exclusion test was performed following treatment at 48 h and 96 h post treatment and the proportion of live versus dead cells was calculated using a hemocytometer.
Quantitative RT-PCR. Total RNA was extracted from NBEB cells according to manufacturer's instructions (RNeasy Plus Mini Extraction kit (#74134) (Qiagen, CA). RNA (1 μg) was reverse transcribed into cDNA using the cDNA synthesis High-Capacity RNA-to-cDNA™ Kit. Quantitative PCR was performed using Fast SYBR™ Green Master Mix according to the manufacturer's protocol. Beta-actin was used as a housekeeping gene. Relative expression was calculated using the 2(−ΔCt) method. The qPCR primer sequences can be found in supplementary materials.

NBEB cells = assay: Incucyte live cell imaging of cell confluence; assay type: cell-based; conditions: 4-day measurement after single treatment, 0-45 μM
Description: Cell lines and cell culture. The neuroblastoma cell line NBEB (Single Copy MYCN) cells were used to evaluate the efficacy of the MYCN/MYCNOs G-quadruplex binding molecules. NBEB came from stocks in Pediatric Oncology Branch, National Cancer Institute, National Institutes of Health, Bethesda, MD and have been […]. Cells were cultured in RPMI-1640, supplemented with 10% FBS (Atlanta Biologicals, Atlanta), 2 mM glutamine (Life Technologies, New York), and antibiotics (penicillin 100 μg/mL, streptomycin 100 μg/mL; Life Technologies, New York) at 37° C. in a 5% CO2 incubator.
To examine the effects of G4-binding compounds on NBEB cells, live-cell imaging was performed using an Incucyte interface (described below). […] To examine the time-dependent decrease in MYCNOs expression, cells were treated with 22.5 μM and 45 μM MY-8 and analyzed at various times (0, 4, 24, 48, 72 and 96 h). To validate cell viability, a Trypan Blue exclusion test was performed following treatment at 48 h and 96 h post treatment and the proportion of live versus dead cells was calculated using a hemocytometer.
Incucyte live cell imaging system. […] Incucyte measured cell confluence from pre-defined processing definitions for NBEB NB cells. […]

N-Myc protein = assay: Western blot of N-Myc protein in NBEB cells; assay type: cell-based; conditions: 48 h, Western blotting
Description: To examine the effects of G4-binding compounds on NBEB cells, live-cell imaging was performed using an Incucyte interface (described below). NBEB (5K/well), cells were seeded into 96-well plates in triplicate, treated with compound MY-8 at various concentrations (0-45 μM), and cultured until control wells reached confluence. For RT-qPCR and western blotting, NBEB (300K) cells were treated with MY-8 in 6-well dish for 48 h. To examine the time-dependent decrease in MYCNOs expression, cells were treated with 22.5 μM and 45 μM MY-8 and analyzed at various times (0, 4, 24, 48, 72 and 96 h). To validate cell viability, a Trypan Blue exclusion test was performed following treatment at 48 h and 96 h post treatment and the proportion of live versus dead cells was calculated using a hemocytometer.
Protein assay. Forty-eight hours post-MY-8 treatment in 6-well plates, single copy MYCN cells were lysed directly in the plate with Radioimmunoprecipitation assay buffer (Beyotime, China), pelleted, and chilled at −80° C. […] Total protein concentrations were determined using a Bradford Assay using the Bradford reagent (Beyotime, China). […] Chemiluminescent signal was detected using Clarity™ Western ECL Substrate (Bio-Rad, USA) or Supersignal™ West Femto Maximum Sensitivity Substrate (ThermoFisher Scientific, USA) with a ChemiDoc gel imaging system (Bio-Rad, USA).

[2] = NBEB cells, 24, 36, 48 h, higher concentrations

## COc1ccc(-c2noc(-c3ccc(NCCCN4CCCC4)nn3)n2)cc1 [MY-1, 6-(3-(4-methoxyphenyl)-1,2,4-oxadiazol-5-yl)-N-(3-(pyrrolidin-1-yl)propyl)pyridazin-3-amine]
MYCN G4 DNA; 100 μM of 1 followed by 100 μM of MY-1, also 500 μM of 1
  binding level of MY-1 after injection of 1: not significantly changed
MYCN G4 DNA; MY-1 100 μM and 250 μM in TMPyP4 solution
  SPR binding signal on addition of MY-1 to TMPyP4 solution: increase of SPR binding signals

## COc1ccc(-c2noc(-c3ccc(NCCCNc4c5ccc(Cl)cc5nc5ccc(OC)cc45)nn3)n2)cc1 [B33, N^1-(6-chloro-2-methoxyacridin-9-yl)-N^3-(6-(3-(4-methoxyphenyl)-1,2,4-oxadiazol-5-yl)pyridazin-3-yl)propane-1,3-diamine]
MYCN hairpin-G4 DNA
  Kd: 66 ± 7 nM

## COc1ccc(-c2noc(-c3ccc(NCCCN4CCCCCC4)nn3)n2)cc1 [MY-8, N-(3-(azepan-1-yl)propyl)-6-(3-(4-methoxyphenyl)-1,2,4-oxadiazol-5-yl)pyridazin-3-amine]
[1]; [2]
  MYCNOS001 mRNA level: clear decreases of mRNA level
  MYCNOS002 mRNA level: clear decreases of mRNA level
[1]; NBEB cells, time course
  onset of MYCNOS002 decrease: decreased as early as 24 h
NBEB cells
  NBEB cell growth (cell confluence): significant inhibition of NBEB cell growth
N-Myc protein
  levels of N-Myc protein: decreased upon treatment with MY-8 in a dose-dependent fashion
